Source: PubChem BioAssay AID1963832 (Molecular Pharmacology Branch, DTP, NCI, 2024)

Test system: 885724-159-R-J1-PDC complex spheroid viability
Assay: Anticancer human tumor 885724-159-R-J1-PDC patient-derived pancreatic adenocarcinoma cell line growth inhibition [POLQ]
Settings: for IC50: curve of first compound; for viability, T/C: stronger effect = lower value; active = viability on the fitted dose curve at most 10% of control; inactive = the rest
How it was run: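 Growth inhibition in 3D: complex spheroids (tumor PDC, HUVEC, MSC) treated with POLQ inhibitor combinations; where Cmax unknown, highest tested concentration 10 microM, except SN-38 at 1 microM.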

[1] = second compound 0.0316 µM, first compound 0.0316 µM
[2] = second compound 0.0316 µM, first compound 0.1 µM
[3] = second compound 0.0316 µM, first compound 0.316 µM
[4] = second compound 0.0316 µM, first compound 1 µM
[5] = second compound 0.0316 µM, first compound 3.16 µM
[6] = second compound 0.0316 µM, first compound 10 µM
[7] = second compound 0.1 µM, first compound 0.0316 µM
[8] = second compound 0.1 µM, first compound 0.1 µM
[9] = second compound 0.1 µM, first compound 0.316 µM
[10] = second compound 0.1 µM, first compound 1 µM
[11] = second compound 0.1 µM, first compound 3.16 µM
[12] = second compound 0.1 µM, first compound 10 µM
[13] = second compound 0.316 µM, first compound 0.0316 µM
[14] = second compound 0.316 µM, first compound 0.1 µM
[15] = second compound 0.316 µM, first compound 0.316 µM
[16] = second compound 0.316 µM, first compound 1 µM
[17] = second compound 0.316 µM, first compound 3.16 µM
[18] = second compound 0.316 µM, first compound 10 µM
[19] = second compound 1 µM, first compound 0.0316 µM
[20] = second compound 1 µM, first compound 0.1 µM
[21] = second compound 1 µM, first compound 0.316 µM
[22] = second compound 1 µM, first compound 1 µM
[23] = second compound 1 µM, first compound 3.16 µM
[24] = second compound 1 µM, first compound 10 µM
[25] = second compound 3.16 µM, first compound 0.0316 µM
[26] = second compound 3.16 µM, first compound 0.1 µM
[27] = second compound 3.16 µM, first compound 0.316 µM
[28] = second compound 3.16 µM, first compound 1 µM
[29] = second compound 3.16 µM, first compound 3.16 µM
[30] = second compound 3.16 µM, first compound 10 µM
[31] = second compound 10 µM, first compound 0.0316 µM
[32] = second compound 10 µM, first compound 0.1 µM
[33] = second compound 10 µM, first compound 0.316 µM
[34] = second compound 10 µM, first compound 1 µM
[35] = second compound 10 µM, first compound 3.16 µM
[36] = second compound 10 µM, first compound 10 µM
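Note: spheroids exposed to compounds for 7 days.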

C#Cc1c(F)ccc2cc(O)cc(-c3ncc4c(N5CC6CCC(C5)N6)nc(OCC56CCCN5CC(F)C6)nc4c3F)c12 (stereo not given) + Nc1ccc(C#CCN(C(=O)Cc2ncc(C(F)(F)F)cc2C(F)(F)F)c2ccc(F)cc2)nn1
3.03 µM: IC50 (second compound 10 µM)
2.78 µM: IC50 (second compound 0.316 µM)
2.19 µM: IC50 (second compound 0.0316 µM)
2.95 µM: IC50 (second compound 1 µM)
3.2 µM: IC50 (second compound 0.1 µM)
3.04 µM: IC50 (second compound 3.16 µM)
inactive: viability, T/C [1] 90.8% | viability, T/C [2] 92.6% | viability, T/C [3] 90.7% | viability, T/C [4] 64.2% | viability, T/C [5] 44.2% | viability, T/C [6] 23.8% | viability, T/C [7] 95.9% | viability, T/C [8] 100% | viability, T/C [9] 93.9% | viability, T/C [10] 73% | viability, T/C [11] 52.1% | viability, T/C [12] 25.3% | viability, T/C [13] 116% | viability, T/C [14] 88.4% | viability, T/C [15] 84.3% | viability, T/C [16] 71.2% | viability, T/C [17] 50.6% | viability, T/C [18] 23.4% | viability, T/C [19] 89.9% | viability, T/C [20] 96.6% | viability, T/C [21] 86.7% | viability, T/C [22] 71.3% | viability, T/C [23] 49.6% | viability, T/C [24] 24.2% | viability, T/C [25] 85.3% | viability, T/C [26] 87.2% | viability, T/C [27] 89.1% | viability, T/C [28] 75.9% | viability, T/C [29] 49.5% | viability, T/C [30] 24.5% | viability, T/C [31] 98.6% | viability, T/C [32] 89% | viability, T/C [33] 96.8% | viability, T/C [34] 72.6% | viability, T/C [35] 50.4% | viability, T/C [36] 22.9%

C=CC(=O)N1CCN(c2nc(=O)n(-c3c(C)ccnc3C(C)C)c3nc(-c4c(O)cccc4F)c(F)cc23)C(C)C1 (stereo not given) + Nc1ccc(C#CCN(C(=O)Cc2ncc(C(F)(F)F)cc2C(F)(F)F)c2ccc(F)cc2)nn1
inactive: viability, T/C [1] 96.3% | viability, T/C [2] 86% | viability, T/C [3] 101% | viability, T/C [4] 106% | viability, T/C [5] 103% | viability, T/C [6] 98.6% | viability, T/C [7] 108% | viability, T/C [8] 112% | viability, T/C [9] 110% | viability, T/C [10] 102% | viability, T/C [11] 122% | viability, T/C [12] 94% | viability, T/C [13] 96.5% | viability, T/C [14] 102% | viability, T/C [15] 105% | viability, T/C [16] 102% | viability, T/C [17] 110% | viability, T/C [18] 90.4% | viability, T/C [19] 96.4% | viability, T/C [20] 87.5% | viability, T/C [21] 93.2% | viability, T/C [22] 109% | viability, T/C [23] 110% | viability, T/C [24] 97.3% | viability, T/C [25] 96.9% | viability, T/C [26] 92.9% | viability, T/C [27] 98.4% | viability, T/C [28] 100% | viability, T/C [29] 117% | viability, T/C [30] 83.6% | viability, T/C [31] 95.7% | viability, T/C [32] 104% | viability, T/C [33] 98.6% | viability, T/C [34] 111% | viability, T/C [35] 97.5% | viability, T/C [36] 91.1%
> 10 µM: IC50 (second compound 0.0316 µM) | IC50 (second compound 0.1 µM) | IC50 (second compound 0.316 µM) | IC50 (second compound 1 µM) | IC50 (second compound 3.16 µM) | IC50 (second compound 10 µM)

CCc1cc2c(N3CCc4c(cc(Cn5ccnc5)cc4-c4cn(C)nc4C(F)(F)F)C3=O)cc(C)nc2c(OC)n1 + Nc1ccc(C#CCN(C(=O)Cc2ncc(C(F)(F)F)cc2C(F)(F)F)c2ccc(F)cc2)nn1
> 10 µM: IC50 (second compound 0.0316 µM) | IC50 (second compound 0.1 µM) | IC50 (second compound 0.316 µM) | IC50 (second compound 1 µM) | IC50 (second compound 3.16 µM) | IC50 (second compound 10 µM)
inactive: viability, T/C [1] 84.1% | viability, T/C [2] 82.4% | viability, T/C [3] 79.4% | viability, T/C [4] 79.3% | viability, T/C [5] 75.8% | viability, T/C [6] 69.2% | viability, T/C [7] 91.8% | viability, T/C [8] 87.3% | viability, T/C [9] 75.8% | viability, T/C [10] 77.1% | viability, T/C [11] 70.9% | viability, T/C [12] 60.3% | viability, T/C [13] 86.7% | viability, T/C [14] 84.8% | viability, T/C [15] 82.2% | viability, T/C [16] 85.2% | viability, T/C [17] 69.5% | viability, T/C [18] 69.7% | viability, T/C [19] 89% | viability, T/C [20] 90.9% | viability, T/C [21] 78.3% | viability, T/C [22] 71.8% | viability, T/C [23] 73.1% | viability, T/C [24] 67.2% | viability, T/C [25] 79.3% | viability, T/C [26] 72% | viability, T/C [27] 78.3% | viability, T/C [28] 85.4% | viability, T/C [29] 75.2% | viability, T/C [30] 69.8% | viability, T/C [31] 88% | viability, T/C [32] 88% | viability, T/C [33] 85.2% | viability, T/C [34] 76.8% | viability, T/C [35] 89.9% | viability, T/C [36] 73%

CCc1cc2c(N3CCc4c(cc(Cn5ccnc5)cc4-c4cn(C)nc4C(F)(F)F)C3=O)ccnc2c(OC)n1 + Nc1ccc(C#CCN(C(=O)Cc2ncc(C(F)(F)F)cc2C(F)(F)F)c2ccc(F)cc2)nn1
inactive: viability, T/C [1] 81.6% | viability, T/C [2] 85.8% | viability, T/C [3] 90.6% | viability, T/C [4] 90% | viability, T/C [5] 73.5% | viability, T/C [6] 64.4% | viability, T/C [7] 78.7% | viability, T/C [8] 81.9% | viability, T/C [9] 79.6% | viability, T/C [10] 84.7% | viability, T/C [11] 86.6% | viability, T/C [12] 67.6% | viability, T/C [13] 86.5% | viability, T/C [14] 86.6% | viability, T/C [15] 85.7% | viability, T/C [16] 80% | viability, T/C [17] 83.8% | viability, T/C [18] 69.8% | viability, T/C [19] 88.9% | viability, T/C [20] 74.2% | viability, T/C [21] 78.5% | viability, T/C [22] 80.8% | viability, T/C [23] 80.1% | viability, T/C [24] 70.8% | viability, T/C [25] 85.6% | viability, T/C [26] 74.2% | viability, T/C [27] 77% | viability, T/C [28] 81.4% | viability, T/C [29] 79.5% | viability, T/C [30] 68.1% | viability, T/C [31] 90.7% | viability, T/C [32] 80.7% | viability, T/C [33] 82.2% | viability, T/C [34] 83.8% | viability, T/C [35] 81.5% | viability, T/C [36] 68.3%
> 10 µM: IC50 (second compound 0.0316 µM) | IC50 (second compound 0.1 µM) | IC50 (second compound 0.316 µM) | IC50 (second compound 1 µM) | IC50 (second compound 3.16 µM) | IC50 (second compound 10 µM)

COc1cc2cc(C(=O)CCC(=O)O)sc2cc1OC + Nc1ccc(C#CCN(C(=O)Cc2ncc(C(F)(F)F)cc2C(F)(F)F)c2ccc(F)cc2)nn1
> 10 µM: IC50 (second compound 0.0316 µM) | IC50 (second compound 0.1 µM) | IC50 (second compound 0.316 µM) | IC50 (second compound 1 µM) | IC50 (second compound 3.16 µM) | IC50 (second compound 10 µM)
inactive: viability, T/C [1] 96.1% | viability, T/C [2] 105% | viability, T/C [3] 98.3% | viability, T/C [4] 108% | viability, T/C [5] 107% | viability, T/C [6] 100% | viability, T/C [7] 103% | viability, T/C [8] 106% | viability, T/C [9] 98.8% | viability, T/C [10] 95.7% | viability, T/C [11] 101% | viability, T/C [12] 88.8% | viability, T/C [13] 101% | viability, T/C [14] 95.3% | viability, T/C [15] 90% | viability, T/C [16] 109% | viability, T/C [17] 97.6% | viability, T/C [18] 86.3% | viability, T/C [19] 94.9% | viability, T/C [20] 95.2% | viability, T/C [21] 94.4% | viability, T/C [22] 92.4% | viability, T/C [23] 103% | viability, T/C [24] 88.9% | viability, T/C [25] 91.1% | viability, T/C [26] 94.5% | viability, T/C [27] 103% | viability, T/C [28] 94.1% | viability, T/C [29] 104% | viability, T/C [30] 86.4% | viability, T/C [31] 107% | viability, T/C [32] 97.3% | viability, T/C [33] 92.7% | viability, T/C [34] 96.8% | viability, T/C [35] 114% | viability, T/C [36] 96%
